Reference: patent publication US11845760B2, “PRMT5 inhibitors” (AMGEN INC., priority 2020, dated 2023)
Like-named read-outs stand apart in the source and are kept apart here.

What was measured:
HCT116 MTAP null cells = experiment: HCT116 MTAP null cell line proliferation (CellTiter-Glo cell viability, 6 days); format: cell-based; conditions: HCT116 MTAP null cells, 6 days of treatment, CellTiter-Glo cell viability, read-out: HCT-116 MTAP null IC50
How it was run: (§1)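 Isogenic HCT116 pair (parent and MTAP double-allele knockout) in RPMI 1640 + 10% FBS, exposed 6 days to compound: 8–9-point 1:3 dilutions from 1 or 10 μM top, or 22-point 1:2 dilutions from 10 or 50 μM top. CellTiter-Glo luminescence; IC50 from sigmoidal fit (Hill −1) or 4-parameter logistic.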

HCT116 WT cells = experiment: HCT116 WT cell line proliferation (CellTiter-Glo cell viability, 6 days); format: cell-based; conditions: HCT116 WT (parent) cells, 6 days of treatment, CellTiter-Glo cell viability, read-out: HCT-116 WT IC50
How it was run: as §1

Compound | IC50 (HCT116 MTAP null cells; HCT116-MTAP null, 144 h) [nM] | IC50 (HCT116 WT cells; Homo sapiens, HCT-116, 144 h) [nM] | IC50 (HCT116 MTAP null cells) [nM] | IC50 (HCT116 WT cells) [nM]
Nc1nc2ccc(C(=O)N3CCOCC3c3cccc(F)c3)cc2c2c1COC2 (racemic) [Example 364, (4-amino-1,3-dihydrofuro[3,4-c]quinolin-8-yl)-[rac-(3S)-3-(3-fluorophenyl)morpholin-4-yl]methanone] | 3480 | > 10000 |  | 
Cn1ncc2c(N)nc3cc(F)c(C(=O)N4C[C@H]5C[C@@]5(c5ccc(C(F)(F)F)cc5)C4)cc3c21 (single isomer, unassigned) [Example 621] | 175 | 4410 |  | 
COc1ccc(C2COCCN2C(=O)c2ccc3nc(N)c4c(c3c2)COC4)cc1 (racemic) [Example 365, (4-amino-1,3-dihydrofuro[3,4-c]quinolin-8-yl)-[rac-(3S)-3-(4-methoxyphenyl)morpholin-4-yl]methanone] | 1560 | > 10000 |  | 
Nc1nc2ccc(C(=O)N3CCOCC3c3ncccn3)cc2c2c1COC2 (centres unmarked) [Example 300, (4-amino-1,3-dihydrofuro[3,4-c]quinolin-8-yl)(3-(pyrimidin-2-yl)morpholino)methanone] | > 1000 | > 10000 |  | 
Nc1nc2cc(F)c(C(=O)N3CCOCC3c3ccnc(C(F)(F)F)c3)cc2c2c1COC2 (racemic) [Example 352, (4-amino-7-fluoro-1,3-dihydrofuro[3,4-c]quinolin-8-yl)((3R)-3-(2-(trifluoromethyl)-4-pyridinyl)-4-morpholinyl)methanone and (4-amino-7-fluoro-1,3-dihydrofuro[3,4-c]quinolin-8-yl)((3S)-3-(2-(trifluoromethyl)-4-pyridinyl)-4-morpholinyl)methanone] |  |  | 717 | 20700
Nc1nc2cc(F)c(C(=O)N3CC(c4ccc(C(F)(F)F)cc4)C3)cc2c2c1COC2 [Example 422] |  |  | 633 | 12500
Nc1nc2cnc(C(=O)N3CCOC[C@@H]3c3cc(C(F)(F)F)cs3)cc2c2c1COC2 (single isomer, unassigned) [Example 615] | 241 | 3460 |  | 
C[C@@H]1CN(C(=O)c2ccc3nc(N)c4c(c3c2)COC4)[C@H](c2ccc(C(F)(F)F)cn2)CO1 (single isomer, unassigned) [Example 574] | > 1000 | > 10000 |  | 
Nc1nc2ccc(C(=O)N3CCOC[C@@H]3c3ccc(Cl)cc3)cc2c2c1COC2 (single isomer, unassigned) [Example 581] | 183 | 6570 |  | 
C[C@@H]1COC[C@H](c2ccc(OCCC(F)(F)F)nn2)N1C(=O)c1cc2c3c(c(N)nc2cn1)COC3 [Example 564, (4-amino-1,3-dihydrofuro[3,4-c][1,7]naphthyridin-8-yl)((3R,5S)-3-methyl-5-(6-(3,3,3-trifluoropropoxy)-3-pyridazinyl)-4-morpholinyl)methanone] | 28 | 708 |  | 
Cn1ncc2c(N)nc3cnc(C(=O)N4CCOC[C@@H]4c4ccc(S(F)(F)(F)(F)F)cc4)cc3c21 [Example 448, (4-amino-1-methyl-1H-pyrazolo [4,3-c][1,7]naphthyridin-8-yl)((3S)-3-(4-(pentafluoro-lambda~6~-sulfanyl)phenyl)-4-morpholinyl)methanone] | 6 | 130 |  | 
C[C@@H]1COC[C@H](c2ccc(C(F)(F)F)cn2)N1C(=O)c1cc2c3c(c(N)nc2cn1)COC3 [Example 522, (4-amino-1,3-dihydrofuro[3,4-c][1,7]naphthyridin-8-yl)((3R,5S)-3-methyl-5-(5-(trifluoromethyl)-2-pyridinyl)-4-morpholinyl)methanone] | 30 | 509 |  | 
CC1(C)CN(C(=O)c2cc3c4c(c(N)nc3cc2F)COC4)C[C@H]1c1ccc(Br)cc1 (single isomer, unassigned) [Example 478] | 31 | 1950 |  | 
Cn1ncc2c(N)nc3cc(F)c(C(=O)N4CCOC[C@@H]4c4ccc(C(F)(F)C(F)(F)F)cc4)cc3c21 [Example 411, (4-amino-7-fluoro-1-methyl-1H-pyrazolo[4,3-c]quinolin-8-yl)((3S)-3-(4-(pentafluoroethyl)phenyl)-4-morpholinyl)methanone] | 8 | 352 |  | 
Cn1ncc2c(N)nc3cc(F)c(C(=O)N4CC(c5ccc(C(F)(F)F)cc5)C4)cc3c21 [Example 427, (4-amino-7-fluoro-1-methyl-1H-pyrazolo[4,3-c]quinolin-8-yl)(3-(4-(trifluoromethyl)phenyl)-1-azetidinyl)methanone] | 40 | 2540 |  | 

Other lines, results leading:

IC50 (HCT116 MTAP null cells; HCT116-MTAP null, 144 h) [nM] | IC50 (HCT116 WT cells; Homo sapiens, HCT-116, 144 h) [nM] | IC50 (HCT116 MTAP null cells) [nM] | IC50 (HCT116 WT cells) [nM] | Compound
 |  | 53 | 2370 | CC1OCc2c1c(N)nc1ccc(C(=O)N3C(C)COCC3c3ccc(OC(F)F)nn3)cc21 (mixture of isomers) [Example 317, ((3R)-4-amino-3-methyl-1,3-dihydrofuro[3,4-c]quinolin-8-yl)((3R,5S)-3-(6-(difluoromethoxy)-3-pyridazinyl)-5-methyl-4-morpholinyl)methanone and ((3R)-4-amino-3-methyl-1,3-dihydrofuro[3,4-c]quinolin-8-yl)((3S,5R)-3-(6-(difluoromethoxy)-3-pyridazinyl)-5-methyl-4-morpholinyl)methanone]
31 | 1430 |  |  | Cn1ncc2c(N)nc3cc(F)c(C(=O)N4CCOC[C@@H]4c4ccc(F)cc4)cc3c21 [Example 545, (4-amino-7-fluoro-1-methyl-1H-pyrazolo[4,3-c]quinolin-8-yl)((3S)-3-(4-fluorophenyl)-4-morpholinyl)methanone]
96 | 2130 |  |  | CC(C)Oc1ccc([C@@H]2COC[C@H](C)N2C(=O)c2cc3c4c(c(N)nc3cn2)COC4)cn1 (racemic) [Example 306, (4-amino-1,3-dihydrofuro[3,4-c][1,7]naphthyridin-8-yl)((3R,5S)-3-methyl-5-(6-(2-propanyloxy)-3-pyridinyl)-4-morpholinyl)methanone and (4-amino-1,3-dihydrofuro[3,4-c][1,7]naphthyridin-8-yl)((3S,5R)-3-methyl-5-(6-(2-propanyloxy)-3-pyridinyl)-4-morpholinyl)methanone]
40 | 688 |  |  | C[C@H]1COC[C@@H](c2ccc(C(F)(F)F)nc2)N1C(=O)c1cc2c3c(c(N)nc2cc1F)COC3 (racemic) [Example 309, (4-amino-7-fluoro-1,3-dihydrofuro[3,4-c]quinolin-8-yl)((3R,5S)-3-methyl-5-(6-(trifluoromethyl)-3-pyridinyl)-4-morpholinyl)methanone and (4-amino-7-fluoro-1,3-dihydrofuro[3,4-c]quinolin-8-yl)((3S,5R)-3-methyl-5-(6-(trifluoromethyl)-3-pyridinyl)-4-morpholinyl)methanone]
189 | 16600 |  |  | C[C@H]1OCc2c1c(N)nc1ccc(C(=O)N3C[C@@H](O)[C@H](c4ccc(Cl)cc4)C3)cc21 (single isomer, unassigned) [Example 466]
352 | 14000 |  |  | Nc1nc2cnc(C(=O)N3CCOCC3c3ccc(C(F)(F)F)cn3)cc2c2c1COC2 (racemic) [Example 494, (4-amino-1,3-dihydrofuro[3,4-c][1,7]naphthyridin-8-yl)-[rac-(3S)-3-[5-(trifluoromethyl)-2-pyridyl]morpholin-4-yl]methanone]
239 | 7950 |  |  | Nc1nc2ccc(C(=O)N3CCOC[C@@H]3c3ncc(Br)cc3F)cc2c2c1COC2 (single isomer, unassigned) [Example 622]
6 | 150 |  |  | COc1ccc([C@H]2COC[C@@H](C)N2C(=O)c2cc3c(cc2F)nc(N)c2cnn(C)c23)nn1 [Example 551, (4-amino-7-fluoro-1-methyl-1H-pyrazolo[4,3-c]quinolin-8-yl)((3S,5R)-3-(6-methoxy-3-pyridazinyl)-5-methyl-4-morpholinyl)methanone]
> 1000 | > 10000 |  |  | Cc1ccc([C@@H]2COCCN2C(=O)c2ccc3nc(N)c4c(c3c2)COC4)cn1 (single isomer, unassigned) [Example 605]
97 | 4760 |  |  | Cn1ncc2c(N)nc3cnc(C(=O)N4CC[C@H](c5ccc(C(F)(F)F)cc5)C4)cc3c21 [Example 426, (4-amino-1-methyl-1H-pyrazolo[4,3-c][1,7]naphthyridin-8-yl)((3R)-3-(4-(trifluoromethyl)phenyl)-1-pyrrolidinyl)methanone]
107 | 4330 |  |  | Nc1nc2cnc(C(=O)N3CCOC[C@@H]3c3ccc(C(F)(F)F)cc3)cc2c2c1COC2 (single isomer, unassigned) [Example 481]
 | 6420 | 842 |  | Cn1ncc2c(N)nc3cc(F)c(C(=O)N4CC[C@@H](Oc5ccc(C(F)(F)F)cn5)C4)cc3c21 (single isomer, unassigned) [Example 474]
33 | 850 |  |  | C[C@H]1COC[C@@H](c2ccc(Cl)nc2)N1C(=O)c1cc2c3c(c(N)nc2cc1F)COC3 (racemic) [Example 313, (4-amino-7-fluoro-1,3-dihydrofuro[3,4-c]quinolin-8-yl)((3R,5S)-3-(6-chloro-3-pyridinyl)-5-methyl-4-morpholinyl)methanone and (4-amino-7-fluoro-1,3-dihydrofuro[3,4-c]quinolin-8-yl)((3S,5R)-3-(6-chloro-3-pyridinyl)-5-methyl-4-morpholinyl)methanone]
